# Article PMC9434700 (Journal of medicinal chemistry, 2022)
# Tested on: mGluR2
# Settings: monkey thalamus, compound 2 0.5 mg/kg iv 10 min before tracer
structure (smiles),measurement,value
"Cc1c(OCc2cccc(-c3ccc(C(=O)O)cc3)c2)cc2c(c1C)C(=O)C(C1CCCC1)C2 (stereo not shown) [Compound 2, Biphenyl-indanone A]",enhancement of [18F]9 Logan VT after pretreatment,~ 3.3%
